Values joined by “and” are separate entries in the source; they are usually repeats but may differ in a detail not shown here. Equal values may be shown once.
Conditions: 343.16 K, Liquid, Vibrating tube method

CCCCCC(=O)OCC(COC(=O)CCCCC)(COC(=O)CCCCC)COC(=O)CCCCC [pentaerythritol tetrahexanoate]
Conditions	mass density
251.1 kPa	957.3 kg/m3 and 957.2 kg/m3
254 kPa	957.3 kg/m3 and 957.1 kg/m3
254.2 kPa	957.2 kg/m3
254.4 kPa	957.3 kg/m3
254.5 kPa	957.3 kg/m3
255.8 kPa	957.3 kg/m3
255.9 kPa	957.3 kg/m3
256.3 kPa	957.3 kg/m3
258.5 kPa	957.2 kg/m3
258.7 kPa	957.2 kg/m3
258.9 kPa	957.3 kg/m3
259.1 kPa	957.2 kg/m3
260.1 kPa	957.2 kg/m3 and 957.3 kg/m3
263.7 kPa	957.2 kg/m3
264.3 kPa	957.3 kg/m3
264.6 kPa	957.3 kg/m3
264.8 kPa	957.2 kg/m3
265 kPa	957.2 kg/m3
265.1 kPa	957.3 kg/m3
265.5 kPa	957.2 kg/m3
265.7 kPa	957.3 kg/m3
266 kPa	957.2 kg/m3
266.2 kPa	957.3 kg/m3 and 957.2 kg/m3
266.5 kPa	957.3 kg/m3
266.7 kPa	957.3 kg/m3
267 kPa	957.3 kg/m3
267.2 kPa	957.4 kg/m3
267.6 kPa	957.2 kg/m3
267.7 kPa	957.3 kg/m3 and 957.4 kg/m3
268.3 kPa	957.4 kg/m3
268.4 kPa	957.2 kg/m3 and 957.3 kg/m3
268.6 kPa	957.3 kg/m3
269.1 kPa	957.2 kg/m3 and 957.3 kg/m3
269.5 kPa	957.3 kg/m3
269.8 kPa	957.2 kg/m3
270.2 kPa	957.3 kg/m3
270.3 kPa	957.3 kg/m3
270.5 kPa	957.3 kg/m3
271.4 kPa	957.4 kg/m3
271.6 kPa	957.2 kg/m3 and 957.3 kg/m3
271.7 kPa	957.4 kg/m3
272.1 kPa	957.2 kg/m3 and 957.3 kg/m3
272.3 kPa	957.3 kg/m3
272.6 kPa	957.3 kg/m3
273 kPa	957.3 kg/m3
273.3 kPa	957.3 kg/m3
274.7 kPa	957.1 kg/m3
274.9 kPa	957.4 kg/m3
275 kPa	957.2 kg/m3
276.9 kPa	957.4 kg/m3
279.9 kPa	957.2 kg/m3
280.2 kPa	957.4 kg/m3
280.4 kPa	957.3 kg/m3 and 957.4 kg/m3
280.6 kPa	957.3 kg/m3
280.9 kPa	957.2 kg/m3 and 957.3 kg/m3
281.3 kPa	957.3 kg/m3
281.5 kPa	957.3 kg/m3
281.8 kPa	957.2 kg/m3 and 957.4 kg/m3
282.3 kPa	957.4 kg/m3
282.7 kPa	957.4 kg/m3
282.9 kPa	957.3 kg/m3
283 kPa	957.3 kg/m3
283.4 kPa	957.3 kg/m3
283.9 kPa	957.2 kg/m3
284.2 kPa	957.3 kg/m3
284.4 kPa	957.3 kg/m3
284.7 kPa	957.3 kg/m3
284.8 kPa	957.3 kg/m3
285.4 kPa	957.3 kg/m3
290.3 kPa	957.4 kg/m3
290.5 kPa	957.3 kg/m3 and 957.4 kg/m3
290.7 kPa	957.4 kg/m3
293.8 kPa	957.1 kg/m3
294 kPa	957.4 kg/m3
294.3 kPa	957.2 kg/m3
294.7 kPa	957.2 kg/m3
294.8 kPa	957.2 kg/m3
295.2 kPa	957.2 kg/m3
295.5 kPa	957.3 kg/m3
295.9 kPa	957.3 kg/m3
296.4 kPa	957.2 kg/m3
299.9 kPa	957.4 kg/m3 and 957.3 kg/m3
300 kPa	957.4 kg/m3
300.2 kPa	957.4 kg/m3
300.6 kPa	957.2 kg/m3
300.7 kPa	957.3 kg/m3
300.9 kPa	957.2 kg/m3
301.1 kPa	957.2 kg/m3
301.3 kPa	957.3 kg/m3
301.6 kPa	957.4 kg/m3 and 957.3 kg/m3
302.1 kPa	957.3 kg/m3 and 957.4 kg/m3
302.5 kPa	957.2 kg/m3
302.7 kPa	957.3 kg/m3
303 kPa	957.3 kg/m3
303.2 kPa	957.2 kg/m3
304.2 kPa	957.3 kg/m3
304.6 kPa	957.2 kg/m3
304.7 kPa	957.4 kg/m3
305.1 kPa	957.2 kg/m3
305.4 kPa	957.4 kg/m3
307.2 kPa	957.3 kg/m3
310.1 kPa	957.3 kg/m3
310.3 kPa	957.4 kg/m3
310.5 kPa	957.3 kg/m3
310.6 kPa	957.4 kg/m3
312.2 kPa	957.3 kg/m3
312.6 kPa	957.2 kg/m3
313.1 kPa	957.4 kg/m3
313.6 kPa	957.4 kg/m3
313.9 kPa	957.4 kg/m3
314.3 kPa	957.4 kg/m3
314.5 kPa	957.4 kg/m3
314.6 kPa	957.2 kg/m3
314.8 kPa	957.4 kg/m3
315.3 kPa	957.3 kg/m3
315.5 kPa	957.4 kg/m3
317.1 kPa	957.4 kg/m3
317.4 kPa	957.3 kg/m3
318.1 kPa	957.3 kg/m3
321.6 kPa	957.4 kg/m3
322.1 kPa	957.4 kg/m3
325.6 kPa	957.3 kg/m3
328.2 kPa	957.3 kg/m3
328.7 kPa	957.4 kg/m3
328.9 kPa	957.3 kg/m3
329.2 kPa	957.4 kg/m3
329.6 kPa	957.3 kg/m3
329.9 kPa	957.2 kg/m3
330.1 kPa	957.4 kg/m3
330.6 kPa	957.3 kg/m3
330.8 kPa	957.3 kg/m3
331.3 kPa	957.4 kg/m3
331.5 kPa	957.4 kg/m3 and 957.3 kg/m3
332 kPa	957.3 kg/m3
332.4 kPa	957.3 kg/m3
332.5 kPa	957.3 kg/m3
332.9 kPa	957.3 kg/m3
337.1 kPa	957.2 kg/m3
337.6 kPa	957.4 kg/m3
337.8 kPa	957.3 kg/m3
344.9 kPa	957.4 kg/m3
345.2 kPa	957.4 kg/m3 and 957.3 kg/m3
345.9 kPa	957.4 kg/m3
346.4 kPa	957.5 kg/m3
353.7 kPa	957.3 kg/m3 and 957.4 kg/m3
354.4 kPa	957.4 kg/m3 and 957.3 kg/m3
355.3 kPa	957.3 kg/m3
355.8 kPa	957.3 kg/m3
356.3 kPa	957.3 kg/m3
356.7 kPa	957.4 kg/m3
357 kPa	957.4 kg/m3
357.2 kPa	957.4 kg/m3
357.5 kPa	957.4 kg/m3
357.9 kPa	957.4 kg/m3
358.6 kPa	957.4 kg/m3
359.5 kPa	957.4 kg/m3
360.3 kPa	957.4 kg/m3
360.5 kPa	957.3 kg/m3
360.7 kPa	957.3 kg/m3
361.4 kPa	957.3 kg/m3
361.6 kPa	957.4 kg/m3
361.9 kPa	957.3 kg/m3
362.3 kPa	957.5 kg/m3
362.6 kPa	957.5 kg/m3
362.9 kPa	957.4 kg/m3
365.9 kPa	957.3 kg/m3 and 957.4 kg/m3
366.4 kPa	957.3 kg/m3
366.8 kPa	957.4 kg/m3
367.3 kPa	957.3 kg/m3
367.6 kPa	957.3 kg/m3
368 kPa	957.5 kg/m3
368.1 kPa	957.3 kg/m3
368.5 kPa	957.4 kg/m3
370.4 kPa	957.4 kg/m3
370.8 kPa	957.3 kg/m3
371.3 kPa	957.5 kg/m3
371.6 kPa	957.4 kg/m3
372 kPa	957.4 kg/m3
372.3 kPa	957.4 kg/m3
379.4 kPa	957.5 kg/m3
379.8 kPa	957.4 kg/m3
380.3 kPa	957.4 kg/m3
405.3 kPa	957.4 kg/m3
406 kPa	957.4 kg/m3
406.2 kPa	957.3 kg/m3
406.4 kPa	957.4 kg/m3
406.9 kPa	957.4 kg/m3
410.7 kPa	957.3 kg/m3
411.1 kPa	957.4 kg/m3
411.8 kPa	957.4 kg/m3
412.5 kPa	957.5 kg/m3
415.9 kPa	957.4 kg/m3
416.3 kPa	957.4 kg/m3
416.6 kPa	957.3 kg/m3
417.3 kPa	957.2 kg/m3
417.7 kPa	957.3 kg/m3
421.8 kPa	957.4 kg/m3
422.4 kPa	957.5 kg/m3
422.9 kPa	957.5 kg/m3
423.1 kPa	957.4 kg/m3
495.2 kPa	957.5 kg/m3
498.6 kPa	957.4 kg/m3
501.8 kPa	957.5 kg/m3
506.1 kPa	957.5 kg/m3
509.6 kPa	957.5 kg/m3
513.1 kPa	957.4 kg/m3
517.4 kPa	957.5 kg/m3
521.2 kPa	957.5 kg/m3
541.9 kPa	957.6 kg/m3
598.9 kPa	957.5 kg/m3
1360.7 kPa	958.2 kg/m3
1373.7 kPa	958.2 kg/m3
1386.7 kPa	958 kg/m3
1402 kPa	958.1 kg/m3
1499.4 kPa	958.2 kg/m3
1527.2 kPa	958.3 kg/m3
1543.9 kPa	958.2 kg/m3
1635.2 kPa	958.4 kg/m3
1649.9 kPa	958.4 kg/m3
1664.3 kPa	958.4 kg/m3
1682.1 kPa	958.4 kg/m3
2922.7 kPa	959.2 kg/m3
2945.6 kPa	959.4 kg/m3
3846.3 kPa	960.1 kg/m3
3871.7 kPa	960 kg/m3
3901.2 kPa	960.1 kg/m3
3926.1 kPa	960 kg/m3
3956.3 kPa	960.1 kg/m3
3981.7 kPa	960.2 kg/m3
9203.5 kPa	964.1 kg/m3
9234 kPa	964.1 kg/m3
9270 kPa	964.2 kg/m3
9300.6 kPa	964.1 kg/m3
9331.6 kPa	964.1 kg/m3
9596.7 kPa	964.4 kg/m3
9628.1 kPa	964.4 kg/m3
9666.2 kPa	964.4 kg/m3
9698 kPa	964.4 kg/m3
9736.5 kPa	964.4 kg/m3
9768.5 kPa	964.5 kg/m3
9839 kPa	964.5 kg/m3
9871.9 kPa	964.6 kg/m3
9905.6 kPa	964.5 kg/m3
9938.9 kPa	964.7 kg/m3
9971.6 kPa	964.5 kg/m3
10011 kPa	964.7 kg/m3
10044 kPa	964.7 kg/m3
10084 kPa	964.7 kg/m3
10117 kPa	964.9 kg/m3
10151 kPa	964.7 kg/m3
10192 kPa	965 kg/m3
10225 kPa	964.9 kg/m3
10259 kPa	964.9 kg/m3
10294 kPa	964.9 kg/m3
10335 kPa	964.8 kg/m3
10369 kPa	965 kg/m3
10404 kPa	965 kg/m3
10446 kPa	965 kg/m3
10481 kPa	964.9 kg/m3
10516 kPa	964.9 kg/m3
10551 kPa	965 kg/m3
10593 kPa	965.2 kg/m3
10628 kPa	965.1 kg/m3
10670 kPa	965.1 kg/m3
10705 kPa	965.2 kg/m3
10741 kPa	965.2 kg/m3
10777 kPa	965.2 kg/m3
10820 kPa	965.2 kg/m3
10856 kPa	965.5 kg/m3
10893 kPa	965.4 kg/m3
10929 kPa	965.3 kg/m3
10972 kPa	965.3 kg/m3
12411 kPa	966.4 kg/m3
12434 kPa	966.4 kg/m3
12457 kPa	966.5 kg/m3
12484 kPa	966.4 kg/m3
12507 kPa	966.5 kg/m3
12530 kPa	966.5 kg/m3
12559 kPa	966.6 kg/m3
12577 kPa	966.5 kg/m3
12604 kPa	966.5 kg/m3
12626 kPa	966.5 kg/m3
12653 kPa	966.7 kg/m3
12675 kPa	966.5 kg/m3
12697 kPa	966.5 kg/m3
12722 kPa	966.6 kg/m3
12741 kPa	966.6 kg/m3
12760 kPa	966.7 kg/m3
12778 kPa	966.8 kg/m3
12793 kPa	966.6 kg/m3

— the NIST ThermoML archive (doi:10.1021/je060271a)
